Read-outs that look alike come from different tables or passages of the source.
Tests used:
[1] = system: CEM, MCF7, HeLa, HCT 116 cancer cell lines and BJ fibroblasts
Protocol: (§1) Doxorubicin was used as a positive control.
(§2) The screening cell lines, T-lymphoblastic leukemia (CEM), cervical carcinoma (HeLa), breast carcinoma (MCF7), and human foreskin fibroblasts (BJ) were obtained from the American Type Culture Collection (Manassas, VA, USA). Cells were cultured in DMEM (Dulbecco’s Modified Eagle Medium, Sigma Aldrich, Darmstadt, Germany). Media used were supplemented with 10% fetal bovine serum, 2 mM L-glutamine, and 1% penicillin-streptomycin (all from Sigma Aldrich, Darmstadt, Germany). The cell lines were maintained under standard cell culture conditions at 37 °C and 5% CO2 in humid environment. Cells were subcultured twice or three times a week using the standard trypsinization procedure.

[2] = system: CEM, MCF7, HeLa, HCT 116 cancer cell lines and BJ fibroblasts; assay: Cytotoxicity screening tests, summary statements over the cell line panel; settings: for IC50: Homo sapiens, 72 h, read-out: IC50 against all tested cell lines
Protocol: as §1, §2

in vitro = settings: human
Protocol: as §1, §2

[3] = system: human T-lymphoblastic leukemia (CEM) cells; assay: Cytotoxicity screening test, CEM; settings: CCRF-CEM, 72 h, read-out: Cytotoxicity IC50, CEM
Protocol: as §1, §2

[4] = system: human colon carcinoma (HCT 116) cells; assay: Cytotoxicity screening test, HCT 116; settings: HCT-116, 72 h, read-out: Cytotoxicity IC50, HCT 116
[5] = system: human cervical cancer (HeLa) cells; assay: Cytotoxicity screening test, HeLa; settings: 72 h, read-out: Cytotoxicity IC50, HeLa
Protocol: as §1, §2

[6] = system: human breast adenocarcinoma (MCF7) cells; assay: Cytotoxicity screening test, MCF7; settings: MCF7, 72 h, read-out: Cytotoxicity IC50, MCF7
Protocol: as §1, §2

[7] = Cytotoxicity screening test, BJ reference cells; settings: human, BJ normal foreskin fibroblasts
Protocol: as §1, §2

Compound | Cytotoxicity (in words) [1] | IC50 [2] [µM] | IC50 at 72 h (in vitro) [µM] | IC50 [3] [µM] | IC50 [4] [µM] | IC50 [5] [µM] | IC50 [6] [µM] | IC50 at 72 h [7] [µM] | Cytotoxicity (in words) ([2]; summary over the tested cell lines)
C#CCO[C@H]1CC[C@]2(C)[C@H]3CC[C@@H]4[C@H]5[C@H](C(=C)C)CC[C@]5(C(=O)OCc5ccccc5)CC[C@@]4(C)[C@]3(C)CC[C@H]2C1(C)C [Compound 4, Benzyl (3β)-3-(prop-2-yn-1-yloxy)lup-20(29)-en-28-oate] | no cytotoxicity | > 50 | > 50 | > 50 | > 50 | > 50 | > 50 |  | 
C=C(C)[C@@H]1CC[C@]2(C(=O)OCc3ccccc3)CC[C@]3(C)[C@H](CC[C@@H]4[C@@]5(C)CC[C@H](OCc6cn(CCCCC(=O)O[C@H]7CC[C@@]8(C)C(=CC[C@H]9[C@@H]%10C[C@@H]%11O[C@]%12(CC[C@@H](C)CO%12)[C@@H](C)[C@@H]%11[C@@]%10(C)CC[C@@H]98)C7)nn6)C(C)(C)[C@@H]5CC[C@]43C)[C@@H]12 [Compound 7, Benzyl (3β)-3-[(1-{5-oxo-5-[(3β,25R)-spirost-5-en-3-yloxy]pentyl}-1H-1,2,3-triazol-4-yl)methoxy]lup-20(29)-en-28-oate] | medium to weak multifarious cytotoxicity |  | 46.2 ± 2.8 | 6.5 ± 1.1 | > 50 | > 50 | > 50 |  | 
C=C(C)[C@@H]1CC[C@]2(C(=O)O)CC[C@]3(C)[C@H](CC[C@@H]4[C@@]5(C)CC[C@H](OCc6cn(CCCCC(=O)O)nn6)C(C)(C)[C@@H]5CC[C@]43C)[C@@H]12 [Compound 6, (3β)-3-{[1-(4-Carboxybutyl)-1H-1,2,3-triazol-4-yl]methoxy}lup-20(29)-en-28-oic Acid] | inactive |  | > 50 | > 50 | > 50 | > 50 | > 50 |  | 
COc1cccc2c1C(=O)c1c(O)c3c(c(O)c1C2=O)C[C@@](O)(C(=O)CO)C[C@@H]3O[C@H]1C[C@H](N)[C@H](O)[C@H](C)O1 [Doxorubicin, reference compound] |  |  |  |  | 0.524 ± 0.177 |  |  | 0.278 ± 0.036 | 
C[C@@H]1CC[C@@]2(OC1)O[C@H]1C[C@H]3[C@@H]4CC=C5C[C@@H](O)CC[C@]5(C)[C@H]4CC[C@]3(C)[C@H]1[C@@H]2C [Compound 1, (3β,25R)-spirost-5-en-3-ol, reference compound] |  | > 50 |  | > 50 | > 50 | > 50 | > 50 | > 50 | 
C=C(C)[C@@H]1CC[C@]2(C(=O)O)CC[C@]3(C)[C@H](CC[C@@H]4[C@@]5(C)CC[C@H](OCc6cn(CCCCC(=O)O[C@H]7CC[C@@]8(C)C(=CC[C@H]9[C@@H]%10C[C@@H]%11O[C@]%12(CC[C@@H](C)CO%12)[C@@H](C)[C@@H]%11[C@@]%10(C)CC[C@@H]98)C7)nn6)C(C)(C)[C@@H]5CC[C@]43C)[C@@H]12 [Compound 8, (3β)-3-[(1-{5-Oxo-5-[(3β,25R)-spirost-5-en-3-yloxy]pentyl}-1H-1,2,3-triazol-4-yl]methoxy}lup-20(29)-en-28-oic Acid] |  |  | > 50 | > 50 | > 50 | > 50 | > 50 |  | 
C=C(C)[C@@H]1CC[C@]2(C(=O)OCc3ccccc3)CC[C@]3(C)[C@H](CC[C@@H]4[C@@]5(C)CC[C@H](O)C(C)(C)[C@@H]5CC[C@]43C)[C@@H]12 [Compound 3, Benzyl (3β)-3-hydroxylup-20(29)-en-28-oate] | no cytotoxicity | > 50 | > 50 | > 50 | > 50 | > 50 | > 50 |  | 
C=C(C)[C@@H]1CC[C@]2(C(=O)OCc3ccccc3)CC[C@]3(C)[C@H](CC[C@@H]4[C@@]5(C)CC[C@H](OCc6cn(CCCCC(=O)O)nn6)C(C)(C)[C@@H]5CC[C@]43C)[C@@H]12 [Compound 5, 5-[4-({[(3β)-28-(Benzyloxy)-28-oxolup-20(29)-en-3-yl]oxy}-methyl)-1H-1,2,3-triazol-1-yl]pentanoic acid] |  |  | > 50 | 15.8 ± 0.6 | 19.4 ± 2.1 | 20.3 ± 4.4 | 49.5 ± 0.7 |  | 
C=C(C)[C@@H]1CC[C@]2(C(=O)O)CC[C@]3(C)[C@H](CC[C@@H]4[C@@]5(C)CC[C@H](O)C(C)(C)[C@@H]5CC[C@]43C)[C@@H]12 [Compound 2, 3β-hydroxylup-20(29)-en-28-oic acid, reference compound] |  | > 50 |  | > 50 | > 50 | > 50 | > 50 | > 50 | no cytotoxicity

Source: article PMC7435711, “Synthesis and Pharmacological Effects of Diosgenin–Betulinic Acid Conjugates” (Molecules, 2020)
